According to the supplement of paper PMC4862054:
One block for each compound: values may come before it.

How the values were obtained:
Settings in all cases: 72 h
Hs578T [1] = system: Hs578T
How it was run: (§1)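 Rows with a drug sensitivity score of zero were dropped, and EC50 was taken from the fitted percent-inhibition dose-response curve, censored at the highest concentration. Data were normalised on each plate to vehicle and a positive kill control and checked by Z'-factor. The assay seeded breast cancer cell lines in 20 µl onto 384-well plates pre-loaded with compound in 5 µl medium for 72 h, then added 2.5 µl CellTiter-Blue for 2 h at 37 °C and read fluorescence at 560/590 nm.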

MDA-MB-231 [2] = system: MDA-MB-231
How it was run: as §1

BT-549 [3] = system: BT-549
How it was run: as §1

BT-474 [4] = system: BT-474
How it was run: as §1

MFM-223 [5] = system: MFM-223
How it was run: as §1

HCC1143 [6] = system: HCC1143
How it was run: as §1

MDA-MB-468 [7] = system: MDA-MB-468
How it was run: as §1

CAL-120 [8] = system: CAL-120
How it was run: as §1

MDA-MB-436 [9] = system: MDA-MB-436
How it was run: as §1

HCC1599 [10] = system: HCC1599
How it was run: as §1

SK-BR-3 [11] = system: SK-BR-3
How it was run: as §1

HCC1937 [12] = system: HCC1937
How it was run: as §1

Hs578T [13] = system: Hs578T; remark: listed apart in the source
Experimental: (§2)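 Drug sensitivity and resistance testing (DSRT) of breast cancer cell lines in 384-well plates, 5 concentrations in 10-fold dilutions over a compound-specific 10,000-fold range. After 72 h, cytotoxicity was read by CellTox Green fluorescence and viability by CellTiter-Glo luminescence (multiplexed), normalised to DMSO and benzethonium chloride controls. EC50 is the inflection point of the fitted dose-response curve (bottom asymptote free, so it can be relative for partial curves) and is censored at the highest tested concentration. Rows with DSS 0 (no meaningful response) were excluded.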

MCF-10A [14] = system: MCF-10A
Experimental: as §2

CAL-85-1 [15] = system: CAL-85-1
Experimental: as §2

BT-474 [16] = system: BT-474; remark: listed apart in the source
Experimental: as §2

MFM-223 [17] = system: MFM-223; remark: listed apart in the source
Experimental: as §2

CAL-51 [18] = system: CAL-51
Experimental: as §2

MDA-MB-468 [19] = system: MDA-MB-468; remark: listed apart in the source
Experimental: as §2

MDA-MB-436 [20] = system: MDA-MB-436; remark: listed apart in the source
Experimental: as §2

HCC1599 [21] = system: HCC1599; remark: listed apart in the source
Experimental: as §2

HDQ-P1 [22] = system: HDQ-P1
Experimental: as §2

HCC1937 [23] = system: HCC1937; remark: listed apart in the source
Experimental: as §2

CAL-85-1 [24] = system: CAL-85-1; remark: listed apart in the source
How it was run: as §1

CAL-51 [25] = system: CAL-51; remark: listed apart in the source
How it was run: as §1

CAL-148 [26] = system: CAL-148
How it was run: as §1

DU-4475 [27] = system: DU-4475
How it was run: as §1

HDQ-P1 [28] = system: HDQ-P1; remark: listed apart in the source
How it was run: as §1

MDA-MB-453 [29] = system: MDA-MB-453
How it was run: as §1

Hs578T [30] = system: Hs578T; remark: listed apart in the source
How it was run: (§3)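 The plates used were 384-well plates holding compound at 5 concentrations in 10-fold steps across a compound-specific 10,000-fold range, into which breast cancer cell lines were seeded in 20 µl suspension. Following 72 h incubation, CellTox Green fluorescence was read at 485/520 nm, and CellTiter-Glo luminescence was read after 10 min at room temperature. Normalisation on each plate used 0.1 % DMSO and a positive kill control. Dose-response curves gave the EC50, which was censored at the top concentration.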

MDA-MB-231 [31] = system: MDA-MB-231; remark: listed apart in the source
How it was run: as §3

MCF-10A [32] = system: MCF-10A; remark: listed apart in the source
How it was run: as §3

BT-549 [33] = system: BT-549; remark: listed apart in the source
How it was run: as §3

CAL-85-1 [34] = system: CAL-85-1; remark: listed apart in the source
How it was run: as §3

BT-474 [35] = system: BT-474; remark: listed apart in the source
How it was run: as §3

MFM-223 [36] = system: MFM-223; remark: listed apart in the source
How it was run: as §3

CAL-51 [37] = system: CAL-51; remark: listed apart in the source
How it was run: as §3

HCC1143 [38] = system: HCC1143; remark: listed apart in the source
How it was run: as §3

MDA-MB-468 [39] = system: MDA-MB-468; remark: listed apart in the source
How it was run: as §3

CAL-148 [40] = system: CAL-148; remark: listed apart in the source
How it was run: as §3

CAL-120 [41] = system: CAL-120; remark: listed apart in the source
How it was run: as §3

MDA-MB-436 [42] = system: MDA-MB-436; remark: listed apart in the source
How it was run: as §3

HCC1599 [43] = system: HCC1599; remark: listed apart in the source
How it was run: as §3

DU-4475 [44] = system: DU-4475; remark: listed apart in the source
How it was run: as §3

SK-BR-3 [45] = system: SK-BR-3; remark: listed apart in the source
How it was run: as §3

HDQ-P1 [46] = system: HDQ-P1; remark: listed apart in the source
How it was run: as §3

MDA-MB-453 [47] = system: MDA-MB-453; remark: listed apart in the source
How it was run: as §3

HCC1937 [48] = system: HCC1937; remark: listed apart in the source
How it was run: as §3

MDA-MB-231 [49] = system: MDA-MB-231; remark: listed apart in the source
Experimental: as §2

DU-4475 [50] = system: DU-4475; remark: listed apart in the source
Experimental: as §2

EC50, CellTiter-Blue viability (MDA-MB-231 [2]): 43.1 nM | EC50, CellTiter-Blue viability (BT-549 [3]): 37.8 nM | EC50, CellTiter-Blue viability (BT-474 [4]): 47.9 nM | EC50, CellTiter-Blue viability (HCC1143 [6]): 13.6 nM | EC50, CellTiter-Blue viability (MDA-MB-468 [7]): 40.3 nM | EC50, CellTiter-Blue viability (MDA-MB-436 [9]): 51.4 nM | EC50, CellTiter-Blue viability (HCC1599 [10]): 212 nM | EC50, CellTiter-Blue viability (SK-BR-3 [11]): 34.8 nM | EC50, CellTiter-Blue viability (HCC1937 [12]): 47.2 nM | EC50, CellTiter-Blue viability (MDA-MB-453 [29]): 35.1 nM | EC50, CellTiter-Glo (MDA-MB-231 [31]): 75.9 nM | EC50, CellTiter-Glo (BT-549 [33]): 44.7 nM | EC50, CellTiter-Glo (BT-474 [35]): 70 nM | EC50, CellTiter-Glo (HCC1143 [38]): 28.2 nM | EC50, CellTiter-Glo (MDA-MB-468 [39]): 44.2 nM | EC50, CellTiter-Glo (MDA-MB-436 [42]): 51.4 nM | EC50, CellTiter-Glo (HCC1599 [43]): 61.9 nM | EC50, CellTiter-Glo (SK-BR-3 [45]): 20.1 nM | EC50, CellTiter-Glo (MDA-MB-453 [47]): 55.6 nM | EC50, CellTiter-Glo (HCC1937 [48]): 34.5 nM
SMILES: O=C(Cc1ccc(-c2ccc(OCCN3CCOCC3)cc2)cn1)NCc1ccccc1 [KX2-391]
EC50, CellTiter-Blue viability (Hs578T [1]): 27.9 nM | EC50, CellTiter-Blue viability (MFM-223 [5]): 57.4 nM | EC50, CellTiter-Blue viability (CAL-120 [8]): 31.3 nM | EC50, CellTox Green (Hs578T [13]): 523 nM | EC50, CellTox Green (MCF-10A [14]): 59.8 nM | EC50, CellTox Green (CAL-85-1 [15]): 22.1 nM | EC50, CellTox Green (BT-474 [16]): 307 nM | EC50, CellTox Green (MFM-223 [17]): 328 nM | EC50, CellTox Green (CAL-51 [18]): 23.8 nM | EC50, CellTox Green (MDA-MB-468 [19]): 19.4 nM | EC50, CellTox Green (MDA-MB-436 [20]): > 10000 nM | EC50, CellTox Green (HCC1599 [21]): 267 nM | EC50, CellTox Green (HDQ-P1 [22]): 4110 nM | EC50, CellTox Green (HCC1937 [23]): 5000 nM | EC50, CellTiter-Blue viability (CAL-85-1 [24]): 23.1 nM | EC50, CellTiter-Blue viability (CAL-51 [25]): 63 nM | EC50, CellTiter-Blue viability (CAL-148 [26]): 47.1 nM | EC50, CellTiter-Blue viability (DU-4475 [27]): 46 nM | EC50, CellTiter-Blue viability (HDQ-P1 [28]): 53.6 nM | EC50, CellTiter-Glo (Hs578T [30]): 49.6 nM | EC50, CellTiter-Glo (MCF-10A [32]): 29.6 nM | EC50, CellTiter-Glo (CAL-85-1 [34]): 23 nM | EC50, CellTiter-Glo (MFM-223 [36]): 83.9 nM | EC50, CellTiter-Glo (CAL-51 [37]): 16.8 nM | EC50, CellTiter-Glo (CAL-148 [40]): 35.8 nM | EC50, CellTiter-Glo (CAL-120 [41]): 57.1 nM | EC50, CellTiter-Glo (DU-4475 [44]): 34.7 nM | EC50, CellTiter-Glo (HDQ-P1 [46]): 26.5 nM

EC50, CellTiter-Blue viability (HCC1937 [12]): 7820 nM
SMILES: CCCS(=O)(=O)Nc1ccc(F)c(C(=O)c2c[nH]c3ncc(-c4ccc(Cl)cc4)cc23)c1F [Vemurafenib]
EC50, CellTiter-Blue viability (Hs578T [1]): 9430 nM | EC50, CellTox Green (MDA-MB-231 [49]): > 10000 nM | EC50, CellTox Green (CAL-51 [18]): 21.9 nM | EC50, CellTox Green (DU-4475 [50]): 421 nM | EC50, CellTiter-Blue viability (CAL-85-1 [24]): > 10000 nM | EC50, CellTiter-Blue viability (DU-4475 [27]): 295 nM | EC50, CellTiter-Blue viability (HDQ-P1 [28]): 3680 nM | EC50, CellTiter-Glo (CAL-51 [37]): 1680 nM | EC50, CellTiter-Glo (DU-4475 [44]): 551 nM
